Experiments:
HLA-A*0201 molecules = HLA-A*0201 molecules (Homo sapiens, UniProt P04439, D140Y/D185E/D98H/E176V/E277Q/G131W/G231S/I119V/I121R/I166T/I218V/L300P/L318F/N151K/N90K/P208A/P217A/Q86G/Q94H/R138H/R169H/T345S); experiment: T2 cell surface HLA class I stabilization assay; type: cell-based; details: for HLA-peptide binding affinity (%MFI increase ± SD): peptide 50 μg/ml, T2 cells, anti-HLA-A2 mAb BB7.2 staining, triplicate, mean ± SD
[1] = test system: PBF A2.2-specific CD8+ T cells; experiment: LD/MLPC followed by tetramer-based frequency analysis; type: cell-based, human
Text: Prior to frequency analysis and cytotoxicity assays, PBMC of patients were subjected to mixed lymphocyte peptide culture under limiting dilution conditions (LD/MLPC) according to the method described by Karanikas et al. with some modifications. LD/MLPC aims to seed at most one CTL precursor cell per well and induces proliferation of the precursor cell by subsequent mixed lymphocyte peptide culture. For this purpose, the appropriate number of PBMC and CD8^+ cells per well is considered to be 1 × 10^5–2 × 10^5 [17, 24].
PBMCs were used as a source of responder cells in the initial five subjects (Patients 1 and 2 and three healthy donors) and CD8^+ cells were used in the following three patients (Patients 3–5) [see Additional file 2].
PBMC obtained from peripheral blood samples (50 ml) of Patients 1 and 2 and three healthy donors were suspended in AIM-V (Invitrogen Corp., Carlsbad, CA) supplemented with 1% human serum (HS). These cells were incubated for 60 min at room temperature with peptide PBF A2.2 (50 μg/ml). Peptide-pulsed PBMC were seeded at 2 × 10^5 cells/200 μl/well into round-bottom 96-microwell plates in AIM-V with 10%HS, IL-2 (20 U/ml; a kind gift from Takeda Chemical Industries, Ltd., Osaka Japan) and IL-7 (10 ng/ml; R&D Systems, Minneapolis, Minnesota, USA), and incubated. On day 7, half of the medium was replaced with fresh AIM-V containing IL-2, IL-7 and the same peptides. The cell cultures were maintained by adding fresh AIM-V containing IL-2. On days 14–21, they were subjected to tetramer-based frequency analysis.
PBMC obtained from Patients 3–5 were separated into CD8^+ cells and CD8^- cells using magnetic anti-CD8 microbeads (Miltenyi Biotec, Gladbach, Germany). CD8^- cells were pulsed with the PBF A2.2 peptide for 60 min. Half of the CD8^- cells were cryopreserved at -80°C for the second stimulation. CD8^+ cells (1.0–2.1 × 10^5/well) and irradiated PBF A2.2 peptide-pulsed CD8^- cells (1–5 × 10^5/well) were cocultured in 48-well cell culture plates in 500 μl of AIM-V with 10%HS, IL-2 and IL-7. On day 7, the second stimulation was performed by adding irradiated peptide-pulsed CD8^- cells to each culture well in 500 μl of AIM-V with 10%HS, IL-2 and IL-7. On days 13–23, they were subjected to tetramer-based frequency analysis.
An FITC-conjugated HLA-A*0201/HIV tetramer (here termed the control tetramer) and a PE-conjugated HLA-A*0201/PBF A2.2 tetramer (A2/PBF A2.2 tetramer) were constructed by Medical & Biological Laboratories Co., Ltd. (Tokyo, Japan). PBMCs from patients were stimulated with the PBF A2.2 peptide by using the LD/MLPC procedure as described above. From each microwell containing 200 μl of the microculture pool, 100 μl was transferred to a V-bottom microwell and washed. To the spin-down pellets, the control tetramer and A2/PBF A2.2 tetramer (10 nM in 25 μl of PBS) were added in combination and incubated for 15 min at room temperature. Then a PE-Cy5-conjugated anti-CD8 antibody (eBioscience, San Diego, California, USA) was added (dilution of 1:30 in 25 μl of PBS containing the control tetramer and A2/PBF A2.2 tetramer) and incubated for another 15 min. The cells were washed in PBS twice, fixed with 0.5% formaldehyde, and analyzed by flow cytometry using FACScan and CellQuest software (Becton Dickinson, San Jose, California, USA). CD8^+ living cells were gated and the cells labeled with the A2/PBF A2.2 tetramer were referred to as tetramer-positive cells. Tetramer-positive cells in each well are theoretically derived from a single CTL precursor, regardless of the number (percentage) of tetramer-positive cells. Accordingly, the number of tetramer-positive wells represents the number of CTL precursors. The frequency of anti-PBF A2.2 CTLs was evaluated using the following calculation: (number of tetramer-positive wells)/[(total number of tested wells) × (initial number of CD8+ cells per well)].

[2] = three tetramer-positive patients with osteosarcoma

Protocol for T2 cells: CTL-mediated cytolytic activity was measured by a 6 h-^51Cr-release assay [25]. […] T2 cells were treated with or without peptides at the indicated concentrations for 1 h at room temperature after ^51Cr-labeling. […] Target cells were labeled with 100 μCi of ^51Cr for 1 h at 37°C. The labeled target cells were suspended in RPMI without serum and seeded to microwells (2–5 × 10^3 cells/well).
CTL 5A9 and CTL clones were used as the effector cells. The effector cells were transferred to V-bottom microwells, suspended in AIM-V and mixed with the labeled target cells. After a 6 h incubation period at 37°C, the ^51Cr level in the culture supernatant was measured using an automated gamma counter. The percentage of specific cytotoxicity was calculated as follows: the percentage of specific ^51Cr release = 100 × (experimental release – spontaneous release)/(maximum release – spontaneous release).

MMAAMVLTSL [Peptide A2.5]
HLA-peptide binding affinity (%MFI increase ± SD) (HLA-A*0201 molecules): 10.5 ± 12.0 %MFI increase

GLVEQHSWM [Peptide A2.4]
HLA-peptide binding affinity (%MFI increase ± SD) (HLA-A*0201 molecules): 1.8 ± 9.9 %MFI increase

SMTGLPLSAL [Peptide A2.8]
HLA-peptide binding affinity (%MFI increase ± SD) (HLA-A*0201 molecules): -1.5 ± 2.5 %MFI increase

FETDPDPFLL [Peptide A2.6]
HLA-peptide binding affinity (%MFI increase ± SD) (HLA-A*0201 molecules): 22.5 ± 9.6 %MFI increase

ALPSFQIPV [Peptide A2.2]
%MFI increase in peptide titration experiments (HLA-A*0201 molecules; HLA class I stabilization assay at indicated concentrations, Fig. 1): dose-dependent increases of %MFI
%MFI increase compared among the peptides (HLA-A*0201 molecules; HLA class I stabilization assay, ten PBF-derived peptides): highest %MFI increase among the peptides
HLA-peptide binding affinity (%MFI increase ± SD) (HLA-A*0201 molecules): 74.5 ± 6.6 %MFI increase
Frequency of CTL precursors calculated as 2/5.4 × 10^6 ([1]; Patient 4, 36 wells at 1.5 × 10^5 CD8+ cells per well, tetramer analysis on day 21, Fig. 2): 3.7 × 10^-7
Patients in whom A2/PBF A2.2 tetramer-positive T cells were detected ([1]; five HLA-A*0201+ patients with PBF-positive osteosarcoma): three of the five patients
Frequencies of the PBF A2.2-specific CD8+ T cells, average ([1]; three healthy donors): 2 × 10^-7
Frequencies of the PBF A2.2-specific CD8+ T cells, range ([1]; three healthy donors): 1 × 10^-7 to 3 × 10^-7
Frequencies of the PBF A2.2-specific CD8+ T cells, average [1, 2]: 2 × 10^-6
Frequencies of the PBF A2.2-specific CD8+ T cells, range [1, 2]: 2 × 10^-7 to 5 × 10^-6
Cytotoxicity of five CTL clones (1B1, 1D7, 1E1, 1F4, 1F7) against peptide-pulsed T2 cells (T2 cells): All five CTL clones lysed PBF A2.2 peptide-pulsed T2 cells

KVLRSIVGI [Peptide A2.10]
HLA-peptide binding affinity (%MFI increase ± SD) (HLA-A*0201 molecules): 4.4 ± 9.9 %MFI increase

FQPGQKVYV [Peptide A2.3]
HLA-peptide binding affinity (%MFI increase ± SD) (HLA-A*0201 molecules): 2.7 ± 9.4 %MFI increase

FETDPDPFL [Peptide A2.7]
HLA-peptide binding affinity (%MFI increase ± SD) (HLA-A*0201 molecules): 8.2 ± 19.1 %MFI increase

YQALPSFQI [Peptide A2.9]
HLA-peptide binding affinity (%MFI increase ± SD) (HLA-A*0201 molecules): 10.2 ± 8.2 %MFI increase

WLLEQKLQV [Peptide A2.1]
HLA-peptide binding affinity (%MFI increase ± SD) (HLA-A*0201 molecules): 38.8 ± 15.5 %MFI increase
